Several values for one entry are separate records, joined by “and”; a condition that tells them apart may be missing. Equal values may be shown once. Read-outs that look alike come from different tables or passages of the source.
Columns and labels:
AsPC-1 cells = experiment: Cell proliferation assay, chemodrug + ATR inhibitor (Incucyte confluence, 72 h); settings: for EC50: Homo sapiens;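 on all read-outs here: underlying read-out for every value is AsPC-1 confluence after 72 h incubation at 37 °C and 5% CO2, divided by that well's starting confluence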
Procedure: Cells were seeded at 5000 cells/well into 96-well flat bottom plates (Eppendorf) and allowed to attach overnight. […] Cells were incubated for 72 h at 37 °C and 5% CO2. Cell confluence readouts at 72 h were either normalized to their initial confluence using the Incucyte software (AsPC-1) or used without prior normalization (all others). […] Each experiment was performed in triplicates, the data was plotted as mean ± standard deviation (s.d.).

PSN-1 [1] = experiment: cells; set-up: ATPlite luminescence viability of PDAC cell lines, 11-dose single-agent curves, 4-parameter fit; settings: Homo sapiens, PSN1, 72 h, read-out: EC50 [nM]
Procedure: (§1) Afterward, small amounts were transferred to 384-well intermediate plates (Greiner Bio-One GmbH, Germany). […] For drug combination screening, 1000 to 5000 cells were seeded into 384-well plates (CulturPlate™, Perkin Elmer, MA, USA) using a Multidrop™ Combi Reagent Dispenser (Thermo Scientific, MA, USA) in 50 µl medium per well 24 h prior to drug treatment (seeding densities see Appendix Table S1). […] The final DMSO concentration in each well was 0.2%. […] Eight wells per plate without library drug served as negative controls, and sixteen wells per plate containing 5 µM Staurosporine served as positive controls. […] Next, we analyzed the drug sensitivity of immortalized duct cell line HPDE to detect effects unrelated to pancreatic cancer.

MiaPaCa-2 = experiment: cells; set-up: ATPlite luminescence viability of PDAC cell lines, 11-dose single-agent curves, 4-parameter fit; settings: Homo sapiens, MIA PaCa-2, 72 h, read-out: EC50 [nM]
Procedure: as §1

AsPC-1 = experiment: cells; set-up: Viability of PDAC cell lines, ATPlite luminescence, 11-dose single-agent curve fit; settings: Homo sapiens, ASPC1, 72 h, read-out: EC50 [nM]
Procedure: as §1

Capan-1 = experiment: cells; set-up: Viability of PDAC cell lines, ATPlite luminescence, 11-dose single-agent curve fit; settings: Homo sapiens, CAPAN-1, 72 h, read-out: EC50 [nM]
Procedure: as §1

Suit2-07 = experiment: cells; set-up: Viability of PDAC cell lines, ATPlite luminescence, 11-dose single-agent curve fit; settings: 72 h, read-out: EC50 [nM]
Procedure: as §1

BxPC-3 = experiment: cells; set-up: Viability of PDAC cell lines, ATPlite luminescence, 11-dose single-agent curve fit; settings: Homo sapiens, BXPC-3, 72 h, read-out: EC50 [nM]
Procedure: as §1

HuP-T4 = experiment: cells; set-up: Viability of PDAC cell lines, ATPlite luminescence, 11-dose single-agent curve fit; settings: Homo sapiens, HuP-T4, 72 h, read-out: EC50 [nM]
Procedure: as §1

PaTu-8988-T = experiment: cells; set-up: Viability of PDAC cell lines, ATPlite luminescence, 11-dose single-agent curve fit; settings: Homo sapiens, PaTu 8988t, 72 h, read-out: EC50 [nM]
Procedure: as §1

Colo-357 = experiment: cells; set-up: Viability of PDAC cell lines, ATPlite luminescence, 11-dose single-agent curve fit; settings: Homo sapiens, COLO357, 72 h, read-out: EC50 [nM]
Procedure: as §1

HPDE = experiment: cells; set-up: Viability of PDAC cell lines, ATPlite luminescence, 11-dose single-agent curve fit; settings: HPDE, 72 h, read-out: EC50 [nM]
Procedure: as §1

Dan-G = experiment: cells; set-up: Viability of PDAC cell lines, ATPlite luminescence, 11-dose single-agent curve fit; settings: 72 h, read-out: EC50 [nM]
Procedure: as §1

FAMPAC = experiment: cells; set-up: Viability of PDAC cell lines, ATPlite luminescence, 11-dose single-agent curve fit; settings: 72 h, read-out: EC50 [nM]
Procedure: as §1

PANC-1 = experiment: cells; set-up: Viability of PDAC cell lines, ATPlite luminescence, 11-dose single-agent curve fit; settings: Homo sapiens, PANC-1, 72 h, read-out: EC50 [nM]
Procedure: as §1

PSN-1 [2] = experiment: cells; set-up: Viability of PDAC cell lines, ATPlite luminescence, 11-dose single-agent curve fit; settings: Homo sapiens, PSN1, 72 h, read-out: EC50 [nM]
Procedure: as §1

[3] = AsPC-1, Experiment GEM (no ATRi), single replicates R1-R3
[4] = AsPC-1, Experiment GEM+ATRi_dose1, single replicates R1-R3
[5] = AsPC-1, Experiment GEM+ATRi_dose2, single replicates R1-R3
[6] = AsPC-1, Experiment GEM+ATRi_dose3, single replicates R1-R3

**Q.** For `O=C1[O][Pt]2([NH][C@@H]3CCCC[C@H]3[NH]2)[O]C1=O` [Oxaliplatin], which pEC50 (AsPC-1 cells) is on record?
**A.** 6.56

**Q.** And the “sensitization of AsPC-1 cells to the chemodrug by Elimusertib” value (AsPC-1 cells)?
**A.** sensitized

**Q.** What does the source list for `NC(=O)c1cnc2[nH]ccc2c1N[C@@H]1[C@@H]2CC3C[C@H]1C[C@@](O)(C3)C2` [Peficitinib]?
**A.** EC50 (PSN-1 [1]): 6420 nM; EC50 (MiaPaCa-2): 3920 nM; EC50 (AsPC-1): > 10000 nM; EC50 (Capan-1): > 10000 nM; EC50 (Suit2-07): 2770 nM; EC50 (BxPC-3): > 10000 nM; EC50 (HuP-T4): 116 nM; EC50 (PaTu-8988-T): > 10000 nM; EC50 (Colo-357): 6330 nM; EC50 (HPDE): 8470 nM; EC50 (Dan-G): 3590 nM; EC50 (FAMPAC): > 10000 nM; EC50 (PANC-1): 282 nM

**Q.** For `CC(=O)O[C@H]1C(=O)[C@@]2(C)[C@H]([C@H](OC(=O)c3ccccc3)[C@]3(O)C[C@H](OC(=O)[C@H](O)[C@@H](NC(=O)c4ccccc4)c4ccccc4)C(C)=C1C3(C)C)[C@]1(OC(C)=O)CO[C@@H]1C[C@@H]2O` [Paclitaxel], which Curve slope (AsPC-1 cells; [3]) is on record?
**A.** 1.97 and 2.99 and 2.20

**Q.** And the Curve top (AsPC-1 cells; [3])?
**A.** 0.44 and 0.38 and 0.36

**Q.** What about the Curve slope (AsPC-1 cells; [4]) of the same molecule?
**A.** 1.47 and 2.08 and 1.46

**Q.** What about the Curve top (AsPC-1 cells; [4]) of the same molecule?
**A.** 0.45 and 0.37 and 0.39

**Q.** What about the Curve slope (AsPC-1 cells; [5]) of the same molecule?
**A.** 2.59 and 1.83 and 1.78

**Q.** What about the Curve top (AsPC-1 cells; [5]) of the same molecule?
**A.** 0.45 and 0.38 and 0.37

**Q.** And the Curve bottom (AsPC-1 cells; [6])?
**A.** 0.92 and 0.80

**Q.** And the Curve slope (AsPC-1 cells; [6])?
**A.** 2.50 and 1.97 and 3.20

**Q.** What about the Curve top (AsPC-1 cells; [6]) of the same molecule?
**A.** 0.42 and 0.35 and 0.36

**Q.** And the EC50 (AsPC-1 cells; ASPC1, 72 h, AsPC-1, Experiment GEM (no ATRi), single replicates R1-R3)?
**A.** 1.89 nM

**Q.** What about the EC50 (AsPC-1 cells; ASPC1, 72 h, read-out: EC50 mean [nM], AsPC-1, Experiment GEM (no ATRi), mean of R1-R3, repeated in each replicate line) of the same molecule?
**A.** 2.09 nM

**Q.** What about the EC50 (AsPC-1 cells; ASPC1, 72 h, read-out: pEC50, AsPC-1 (converted), Experiment GEM (no ATRi), single replicates R1-R3) of the same molecule?
**A.** 1.91 nM

**Q.** What about the EC50 (AsPC-1 cells; ASPC1, read-out: EC50 mean [nM], AsPC-1, Experiment GEM (no ATRi), mean of R1-R3, repeated in each replicate line) of the same molecule?
**A.** 2.09 nM

**Q.** What about the EC50 (AsPC-1 cells; ASPC1, read-out: EC50 mean [nM], AsPC-1, Experiment GEM+ATRi_dose1, mean of R1-R3, repeated in each replicate line) of the same molecule?
**A.** 2.62 nM

**Q.** And the EC50 (AsPC-1 cells; ASPC1, read-out: EC50 mean [nM], AsPC-1, Experiment GEM+ATRi_dose3, mean of R1-R3, repeated in each replicate line)?
**A.** 2.03 nM

**Q.** And the Response (AsPC-1 cells; chemodrug 1 nM + ATRi 3 nM)?
**A.** 78.95 and 82.15 and 71.41

**Q.** And the Response (AsPC-1 cells; chemodrug 1 nM + ATRi 10 nM)?
**A.** 76.45 and 74.25 and 74.55

**Q.** And the Response (AsPC-1 cells; chemodrug 1 nM + ATRi 30 nM)?
**A.** 75.55 and 68.26 and 64.62

**Q.** What about the Response (AsPC-1 cells; chemodrug 1 nM alone (ATRi 0 nM)) of the same molecule?
**A.** 78.71 and 81.33 and 75.17

**Q.** And the Response (AsPC-1 cells; chemodrug 3 nM + ATRi 3 nM)?
**A.** 63.11 and 58.53 and 53.51

**Q.** And the Response (AsPC-1 cells; chemodrug 3 nM + ATRi 10 nM)?
**A.** 46.62 and 47.02 and 47.86

**Q.** What about the Response (AsPC-1 cells; chemodrug 3 nM + ATRi 30 nM) of the same molecule?
**A.** 47.65 and 42.95 and 41.75

**Q.** And the Response (AsPC-1 cells; chemodrug 3 nM alone (ATRi 0 nM))?
**A.** 51.76 and 52.32 and 44.31

**Q.** What about the Response (AsPC-1 cells; chemodrug 10 nM + ATRi 3 nM) of the same molecule?
**A.** 44.83 and 35.01 and 34.23

**Q.** What about the Response (AsPC-1 cells; chemodrug 10 nM + ATRi 10 nM) of the same molecule?
**A.** 38.43 and 33.69 and 33.51

**Q.** What about the Response (AsPC-1 cells; chemodrug 10 nM + ATRi 30 nM) of the same molecule?
**A.** 39.64 and 34.49 and 30.28

**Q.** And the Response (AsPC-1 cells; chemodrug 10 nM alone (ATRi 0 nM))?
**A.** 41.65 and 34.17 and 31.46

**Q.** And the Response (AsPC-1 cells; chemodrug 30 nM + ATRi 3 nM)?
**A.** 39.42 and 37.16 and 36.82

**Q.** What about the Response (AsPC-1 cells; chemodrug 30 nM + ATRi 10 nM) of the same molecule?
**A.** 50.74 and 48.74 and 42.64

**Q.** And the Response (AsPC-1 cells; chemodrug 30 nM + ATRi 30 nM)?
**A.** 37.65 and 29.32 and 30.21

**Q.** What about the Response (AsPC-1 cells; chemodrug 30 nM alone (ATRi 0 nM)) of the same molecule?
**A.** 37.54 and 28.80 and 29.10

**Q.** And the Response (AsPC-1 cells; chemodrug 100 nM + ATRi 3 nM)?
**A.** 42.23 and 38.61 and 46.44

**Q.** What about the Response (AsPC-1 cells; chemodrug 100 nM + ATRi 10 nM) of the same molecule?
**A.** 39.32 and 32.95 and 29.28

**Q.** What about the Response (AsPC-1 cells; chemodrug 100 nM + ATRi 30 nM) of the same molecule?
**A.** 43.96 and 36.95 and 33.77

**Q.** And the Response (AsPC-1 cells; chemodrug 100 nM alone (ATRi 0 nM))?
**A.** 39.78 and 30.74 and 27.32

**Q.** And the Response (AsPC-1 cells; chemodrug 300 nM + ATRi 3 nM)?
**A.** 37.81 and 31.67 and 30.77

**Q.** What about the Response (AsPC-1 cells; chemodrug 300 nM + ATRi 10 nM) of the same molecule?
**A.** 33.31 and 30.07 and 28.41

**Q.** And the Response (AsPC-1 cells; chemodrug 300 nM + ATRi 30 nM)?
**A.** 35.70 and 31.17 and 27.41

**Q.** And the Response (AsPC-1 cells; chemodrug 300 nM alone (ATRi 0 nM))?
**A.** 37.36 and 36.59 and 31.62

**Q.** And the Response (AsPC-1 cells; chemodrug 1000 nM + ATRi 3 nM)?
**A.** 37.14 and 28.54 and 28.57

**Q.** What about the Response (AsPC-1 cells; chemodrug 1000 nM + ATRi 10 nM) of the same molecule?
**A.** 36.12 and 27.22 and 30.37

**Q.** What about the Response (AsPC-1 cells; chemodrug 1000 nM + ATRi 30 nM) of the same molecule?
**A.** 34.38 and 27.12 and 28.86

**Q.** What about the Response (AsPC-1 cells; chemodrug 1000 nM alone (ATRi 0 nM)) of the same molecule?
**A.** 37.88 and 33.79 and 33.23

**Q.** What about the Response (AsPC-1 cells; chemodrug 3000 nM + ATRi 3 nM) of the same molecule?
**A.** 36.69 and 27.57 and 27.01

**Q.** And the Response (AsPC-1 cells; chemodrug 3000 nM + ATRi 10 nM)?
**A.** 34.07 and 26.83 and 25.03

**Q.** What about the Response (AsPC-1 cells; chemodrug 3000 nM + ATRi 30 nM) of the same molecule?
**A.** 28.21 and 28.84 and 28.63

**Q.** And the Response (AsPC-1 cells; chemodrug 3000 nM alone (ATRi 0 nM))?
**A.** 33.73 and 34.70 and 28.11

**Q.** And the “sensitization of AsPC-1 cells to the chemodrug by Elimusertib” value (AsPC-1 cells; chemodrug + three sub-EC50 doses of Elimusertib)?
**A.** not

**Q.** Which results are given for `CNC(=O)c1ccc(-c2cnc3ncc(Cc4ccc5ncccc5c4)n3n2)cc1F` [Capmatinib]?
**A.** EC50 (AsPC-1): 1.63 nM; EC50 (Capan-1): 6320 nM; EC50 (Suit2-07): 6000 nM; EC50 (PSN-1 [2]): 521 nM; EC50 (BxPC-3): 323 nM; EC50 (HuP-T4): 3120 nM; EC50 (PaTu-8988-T): > 10000 nM; EC50 (HPDE): 1090 nM; EC50 (Dan-G): 451 nM; EC50 (FAMPAC): 8.91 nM; EC50 (PANC-1): > 10000 nM

Source: paper PMC11876601 (Molecular Systems Biology, 2025)
